Values quoted from earlier work, collected in patent US10709666B2, “Carrier particles for dry powder formulations for inhalation” (CHIESI FARMACEUTICI S.P.A., priority 2017, dated 2020).

Conditions: room temperature

saturated concentration in water	SMILES
18-21 % w/v	OC[C@@H](O)[C@@H](O)[C@H](O)[C@H](O)CO [mannitol]
18-19 % w/v	O.OC[C@H]1O[C@@H](O[C@H]2[C@H](O)[C@@H](O)[C@@H](O)O[C@@H]2CO)[C@H](O)[C@@H](O)[C@H]1O [alpha-lactose monohydrate]
